Results on six compounds are retold here after patent US20210283217A1, “NEUROMODULATING COMPOSITIONS AND RELATED THERAPEUTIC METHODS FOR THE TREATMENT OF INFLAMMATORY AND AUTOIMMUNE DISEASES” (Flagship Pioneering Innovations V, Inc., priority 2016, published 2021).

Test [1] deals with primary human T cells. The test can be described thus: T cell activation and cytokine secretion assay (LEGENDplex). The test is classed as cell-based. The procedure: Peripheral blood mononuclear cells (PBMCs) were isolated from whole blood by ficoll density separation. Briefly, blood was diluted 1:2 with 0.5 mM EDTA solution in PBS, loaded onto a Ficoll-filled Leucosep tube (Greiner Bio-One), and centrifuged for 20 minutes at 1000×g. After centrifugation, the leukocyte/PBMC layer on top of the separation medium was collected and sequentially washed three times with 0.5 mM EDTA solution in PBS. T cells were isolated from PBMCs using magnetic bead-based separation following vendor specification, e.g., Biolegend MojoSort Human CD4/CD8 Naïve T Cell Isolation Kit protocol. In brief, the PBMCs were labeled with biotinylated antibodies against cell surface receptors for cells not in the population of interest. The labeled cells are then captured by streptavidin-coated magnetic beads and removed by magnetic incubation. The uncaptured cells that flow through the magnetic separation are predominantly comprised of the population of interest, in this instance CD3+ T cells. T cells were stained with a 5 μM solution of Tag-it Violet™ dye (BioLegend) for 20 minutes protected from light. The stain was quenched by incubating the cells in cell culture medium containing 10% FBS (complete media). Stained cells were plated on tissue culture plates and sub-maximally activated with concanavalin A (con A) added to the culture medium. Cells were plated at 0.1×10^6 cells well. […] Cells were collected at 24, 48, and 72 hrs. Supernatants were collected at 24, 48, and 72 hrs and cytokine secretion was analyzed by flow cytometry using a LEGENDplex assay (BioLegend). In brief, following manufacturer's protocol, beads pre-coated with antibodies specific to various cytokines were incubated with cell supernatant. […] The beads were then stained and the captured cytokine composition assessed by flow cytometry.

For test [2], the system named is macrophages. The test can be described thus: Macrophage activation and cytokine secretion assay (M1/M2 polarization). The test is classed as cell-based, human. The method, then: Peripheral blood mononuclear cells (PBMCs) were isolated from whole blood by ficoll density separation. Briefly, blood was diluted 1:2 with 0.5 mM EDTA solution in PBS, loaded onto a Ficoll-filled Leucosep tube (Greiner Bio-One), and centrifuged for 20 minutes at 1000×g. After centrifugation, the leukocyte/PBMC layer was collected and sequentially washed three times with 0.5 mM EDTA solution in PBS.
Monocytes (CD14+) were isolated from PBMCs using magnetic bead-based separation following vendor specifications, e.g., Biolegend MojoSort Human CD14 Selection Kit protocol. In brief, PBMCs were labeled with biotinylated antibodies against cell surface receptors for cells not in the population of interest. The labeled cells are then captured by streptavidin-coated magnetic beads and removed by magnetic incubation. The uncaptured cells that flow through the magnetic separation are predominantly comprised of the population of interest, in this case CD14+ monocytes.
Monocytes were differentiated into macrophages by culturing in DMEM complete medium containing 10% FBS for seven days in the presence of 40 ng/mL human M-CSF. Media was changed on day 1 and day 4. On Day 4, macrophages were polarized to various subtypes as follows: M0—incubated with 40 ng/mL M-CSF; M1—cultured with 40 ng/mL M-CSF, 20 ng/mL IFNγ, and 50 ng/mL LPS; M2—incubated with 40 ng/mL M-CSF, 20 ng/mL IL4, 20 ng/mL IL10, and 20 ng/mL TFGB. On day 7, cells were harvested by scraping them from the tissue culture plates and transferring them to 96-well plates.
Supernatants were collected at 24, 48, and 72 hrs and cytokine secretion was analyzed by flow cytometry using a LEGENDplex assay (BioLegend). In brief, following manufacturer's protocol, beads that are pre-coated with antibodies specific to various cytokines were incubated with cell supernatant. […] The beads were then stained and the captured cytokine composition assessed by flow cytometry.
M1 macrophage polarization is defined as increase in production of IL-12, TNF, IL-6, IL-8, IL-1B, MCP-1 and CCL2. Additionally, markers of M1 polarization that can be detected by RNA include Nos2. M2 polarization is defined as increase in IL-10 and/or a decrease in the M1 cytokines listed above. Additionally, markers of M2 polarization that can be detected by RNA include Arg1, IDO, PF4, CCL24, IL10, and IL4Ralpha.

Test [3] relates to NK cells. The test can be described thus: NK cell ADCC against trastuzumab-coated Her2 expressing target cells. In kind it is cell-based, human. Particulars: compared with NK cells pre-treated with beta adrenergic antagonist (nadolol or propranolol) prior to the agonist. The method, then:
Primary Natural Killer (NK) cells are isolated from human peripheral blood using a magnetic bead-based separation kit that negatively selects NK cells by sequestering other defined cell types (T, B, monocytes, etc.). Isolated NK cells are incubated with a target cell line, for example a Her2 expressing cancer cell line that has been pre-coated with trastuzumab, an anti-Her2 antibody, at a range of target-to-effector cell ratios. Following antibody-dependent cell cytotoxicity (ADCC)—antibody-mediated killing of the target cells by the NK cells, the number of surviving target cells is assessed by a fluorescent viability stain.

For test [4], the system named is T cells in the lymph node. The test can be described thus: Lymph node remodeling by hock injection, flow cytometry of lymph node cells. The test is classed as in vivo, C57BL/6J mice. Particulars: hock injection 48.5 nmol followed by quinpirole 0.1 nmol; 24 hours. For orientation: Flow cytometry measures light scatter and fluorescence of single cells or particles in a stream.
Description: 24 hours after hock injection, brachial lymph nodes (LN) were harvested in culture medium (RPMI+10% FBS). LNs were transferred to 24-well tissue culture plates containing 0.5 mL LN digestion buffer (RPMI, 2% FBS, collagenase D (3.3 mg/mL), and DNAse I (40 ug/mL)). LN capsules were manually opened with two syringe (26G) needles and the LNs were incubated in digestion buffer for 15 minutes. Digested LNs were filtered with a 40 μM cell strainer and tissues were smashed with the plunger of a 5 mL syringe. Collected cells were washed in culture medium and plated for assays. Total number of viable cells were assessed by staining with viability dye eFluor 780 (eBioscience). Surface markers of various immune cell subsets were analyzed by staining the cells with antibodies for cell identity (CD3, CD4, CD8, CD19), for the inflammatory marker CD69, and the migratory marker CCR7. The cells were then assayed by flow cytometry.

A short description of test [5]: Treatment of multiple sclerosis patient, MRI lesions. In kind it is in vivo, human. Particulars: MS patient; oral 5 mg/day; MRI 3-6 month after treatment initiation.
Description: A patient is diagnosed with multiple sclerosis (MS) by MRI criteria of >2 lesions. The patient is treated orally with propranolol at a dose regimen of 5 mg/day. An MRI scan is administered 3-6 month after treatment initiation. Further MRI scans are obtained at intervals of 6-12 months.
[6] abbreviates: T cells from two different donors, 72 hours.
Setting [7] is: T cells from two different donors, multiple time points.
The mark [8] stands for this setting: low sub-nanomolar concentrations, 72 hours post treatment.

As to neuropeptide Y, the “T cell production of cytokine IL-4” value in test [1] (sub-nanomolar concentrations, 48 hours post-treatment) is on record as “increase”.

For the compound `CC(C)NCC(O)c1ccc(O)c(O)c1` (centres unmarked) [isoproterenol], in test [1] (setting [6]), the “T cell production of pro-inflammatory cytokine IFNγ (FIG. 6A)” value is recorded as “decreased”, the “T cell production of pro-inflammatory cytokine IL-10 (FIG. 6C)” value is on record as “decreased” and the “T cell production of pro-inflammatory cytokine TNFα (FIG. 6B)” value was “decreased”. Moreover, in test [1] (setting [7]), the “T cell production of pro-inflammatory cytokine IFNγ” value was “decrease”, the “T cell production of pro-inflammatory cytokine IL-10” value is “decrease” and the “T cell production of pro-inflammatory cytokine TNFα” value is “decrease”. The “transcript of NOS2 in macrophages” value in test [2] (M1 marker) is listed as “decrease”. Further, in test [2] (M2 marker), the “transcript for Arg1 in macrophages” value is “increase” and the “transcript for IL-10 in macrophages” value is recorded as “increase”. Besides, in test [2] (monocyte-derived macrophages, dilutions from 10 μM to 1 nM), the macrophage polarization phenotype entry is listed as “polarized toward an M2 phenotype”.

With `CC(C)NCC(O)c1cc(O)cc(O)c1` (centres unmarked) [metaproterenol], in test [3], the “ADCC induced by treated NK cells” value is “significantly less ADCC”.

Regarding `O=C(CCCN1CCC(O)(c2ccc(Cl)cc2)CC1)c1ccc(F)cc1` [haloperidol, Haloperidol], the “quinpirole-induced increase of CCR7+ T cells in the lymph node after pre-treatment with antagonist” value in test [4] is “inhibited”.

As for `CC(C)NCC(O)COc1cccc2ccccc12` (centres unmarked) [propranolol], the “Gadolinium (Gd)-enhancing T1 lesions and/or new or enlarging (active) T2 lesions” value in test [5] is given as “decrease”.

Regarding `NCCc1ccc(O)c(O)c1` [dopamine, Dopamine], in test [1] (24 and 48 hours post-treatment, nanomolar concentrations), the “T cell production of pro-survival cytokine IL-2” value is “increase”. Moreover, in test [1] (setting [8]), the “T cell production of pro-inflammatory cytokine IFNγ” value is “increase”, the “T cell production of pro-inflammatory cytokine IL-5” value is “increase”, the “T cell production of pro-inflammatory cytokine IL-6” value is on record as “increase” and the “T cell production of pro-inflammatory cytokine IL-10” value is given as “increase”. For the same compound, the “T cell production of pro-inflammatory cytokine IL-13” value in test [1] (setting [8]) was “increase”.
